Data on nine molecules can be found in ChEMBL document CHEMBL1201862, “PubChem BioAssay data set” (2004).

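Briefly, cells in 96-well plates were exposed to five compound concentrations for 48 h, and endpoints were estimated by linear interpolation. GI50 = concentration required for 50% inhibition of growth.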 Calls of active or inactive are those of the source. Rule as the data show it: active = GI50 up to about 1.1 µM and inactive = higher. Some results are limits rather than exact numbers.

Test systems include SNB-19; LOX IMVI; HOP-62; COLO 205; OVCAR-3; UACC-62; Malme-3M; SNB-75; U-251; T47D; DU-145; A549; OVCAR-5; NCI-H522; OVCAR-4; PC-3; CAKI-1; MCF7; MDA-MB-231.
Test in all cases: inhibition of tumour cell growth, NCI panel, 48 h

Turning to `Cc1ccc(C)c2c1C/C(=C\c1ccccc1C(=O)O)C2=O`, the GI50 is 81.3 µM (inactive) in the experiment with SNB-19; 54.2 µM (inactive) in the experiment on LOX IMVI; > 100 µM (inactive) with HOP-62; > 100 µM (inactive) in the experiment with COLO 205; 54.2 µM (inactive) in the experiment on OVCAR-3; > 100 µM (inactive) in the experiment with UACC-62. The GI50 in the experiment on Malme-3M is > 100 µM (inactive); in the experiment with SNB-75, > 100 µM (inactive); in the experiment with U-251, 88.3 µM (inactive); with T47D it was > 100 µM (inactive); with DU-145 it was 97.3 µM (inactive); with A549 it was 90.8 µM (inactive). Also, the GI50 in the experiment with OVCAR-5 was > 100 µM (inactive); in the experiment on NCI-H522, > 100 µM (inactive); with OVCAR-4 it was 62.7 µM (inactive); in the experiment with PC-3, > 100 µM (inactive); in the experiment on CAKI-1, > 100 µM (inactive); with MCF7, > 100 µM (inactive).

Turning to `CSc1cc(Br)ccc1-n1c(C(=O)c2ccccc2)c(SC)n(-c2ccccc2)c1=O`, the GI50 in the experiment on SNB-19 is > 100 µM (inactive); in the experiment on LOX IMVI, > 100 µM (inactive); in the experiment with HOP-62, > 100 µM (inactive); with COLO 205 it was 47.2 µM (inactive); in the experiment with OVCAR-3, > 100 µM (inactive); in the experiment with UACC-62, > 100 µM (inactive). Further, the GI50 in the experiment on SNB-75 is > 100 µM (inactive); with U-251, > 100 µM (inactive); with A549, > 100 µM (inactive); with OVCAR-5, > 100 µM (inactive); with NCI-H522 it was 54.6 µM (inactive); in the experiment with MDA-MB-231, 39.8 µM (inactive). In addition, the GI50 in the experiment with OVCAR-4 was > 100 µM (inactive); in the experiment on PC-3, 5.53 µM (inactive); in the experiment with CAKI-1, > 100 µM (inactive); in the experiment on MCF7, 63.1 µM (inactive).

As to `COc1ccc(C2=Nc3c(nc(SC)[nH]c3=O)NC(c3ccccc3)C2)cc1` (configuration not stated), the GI50 with SNB-19 is 23.8 µM (inactive); with LOX IMVI, 30.5 µM (inactive); with HOP-62, 35.4 µM (inactive); in the experiment with COLO 205, 19.6 µM (inactive); with OVCAR-3 it was 27.5 µM (inactive); in the experiment with UACC-62, > 10 µM (inactive). The GI50 in the experiment with Malme-3M is 37.1 µM (inactive); in the experiment on SNB-75, 17.8 µM (inactive); in the experiment on U-251, 18.9 µM (inactive); in the experiment with DU-145 it was 25.2 µM (inactive); in the experiment with A549, 24 µM (inactive); with OVCAR-5, 34.5 µM (inactive). In addition, the GI50 with NCI-H522 was 17.1 µM (inactive); in the experiment with MDA-MB-231 it was 14.3 µM (inactive); in the experiment on PC-3, 33.7 µM (inactive); in the experiment with CAKI-1 it was 17.1 µM (inactive); with MCF7, 17.1 µM (inactive).

In the case of `CCOC(=O)C(C(=O)OCC)=C1NC2(c3ccccc3Nc3ccccc32)C(C#N)S1` (configuration not stated), the GI50 in the experiment on SNB-19 was 12.6 µM (inactive); in the experiment with LOX IMVI, 13.6 µM (inactive); in the experiment with HOP-62, 12.2 µM (inactive); in the experiment on COLO 205 it was 6.75 µM (inactive); in the experiment with OVCAR-3, 0.286 µM (active); with UACC-62 it was 10.3 µM (inactive). The GI50 was 15.3 µM (inactive) with Malme-3M; 16.2 µM (inactive) with SNB-75; 12.1 µM (inactive) with U-251; 4.66 µM (inactive) in the experiment on T47D; 12 µM (inactive) with DU-145; 4.39 µM (inactive) in the experiment on A549. Moreover, the GI50 is 16.7 µM (inactive) in the experiment on OVCAR-5; 13.9 µM (inactive) in the experiment with NCI-H522; 4.3 µM (inactive) with OVCAR-4; 4.52 µM (inactive) in the experiment with PC-3; 16.3 µM (inactive) in the experiment on CAKI-1; 3.39 µM (inactive) in the experiment with MCF7.

Regarding `O=C1NNC2NC(=O)C3(NN2C1=O)c1ccccc1-c1ccccc13` (configuration not stated), the GI50 in the experiment with SNB-19, in the experiment with LOX IMVI, with HOP-62, in the experiment with COLO 205, with OVCAR-3 and with UACC-62 was > 100 µM (inactive) each time. Further, the GI50 with Malme-3M, with SNB-75, in the experiment with U-251, in the experiment on DU-145, in the experiment with A549 and in the experiment with OVCAR-5 was > 100 µM (inactive) throughout. Besides, the GI50 with NCI-H522, in the experiment with MDA-MB-231, with OVCAR-4, in the experiment on PC-3, in the experiment on CAKI-1 and with MCF7 was > 100 µM (inactive) throughout.

On to `COC(=O)C(=O)C(C(=O)C(=O)Nc1ccc(Cl)cc1Cl)c1nc2ccc(Cl)cc2nc1O` (configuration not stated), for which the GI50 with SNB-19, in the experiment with LOX IMVI, with HOP-62, in the experiment on COLO 205, with OVCAR-3 and in the experiment with UACC-62 was > 100 µM (inactive) throughout. The GI50 with SNB-75 was 65.2 µM (inactive); with U-251 it was > 100 µM (inactive); with DU-145, > 100 µM (inactive); in the experiment on A549, > 100 µM (inactive); with OVCAR-5, > 100 µM (inactive); in the experiment with NCI-H522, > 100 µM (inactive). In addition, the GI50 in the experiment on MDA-MB-231, with OVCAR-4, in the experiment with PC-3, with CAKI-1 and in the experiment with MCF7 was > 100 µM (inactive) in each case.

Consider `C=CCC1OC(C)(C)Oc2ccc(OCOCCOC)cc21` (configuration not stated), for which the GI50 in the experiment on SNB-19, in the experiment with LOX IMVI, in the experiment on HOP-62, in the experiment on OVCAR-3, in the experiment on UACC-62 and with Malme-3M was > 100 µM (inactive) throughout. Moreover, the GI50 in the experiment with SNB-75, with U-251, in the experiment on A549, in the experiment on OVCAR-5, in the experiment on OVCAR-4 and in the experiment on CAKI-1 was > 100 µM (inactive) each time.

`Nc1ccc2c(c1)NCCN2`: the GI50 in the experiment with SNB-19 was 9.84 µM (inactive); in the experiment with LOX IMVI, 8.05 µM (inactive); in the experiment with HOP-62, > 100 µM (inactive); with COLO 205, 9.66 µM (inactive); in the experiment on OVCAR-3 it was > 100 µM (inactive); with UACC-62, 5.13 µM (inactive). Moreover, the GI50 with Malme-3M is 51.4 µM (inactive); in the experiment with SNB-75 it was > 100 µM (inactive); in the experiment on U-251, 22.9 µM (inactive); in the experiment on DU-145 it was 25.7 µM (inactive); in the experiment with A549, 18.2 µM (inactive); in the experiment on OVCAR-5, > 100 µM (inactive). Further, the GI50 is 7.64 µM (inactive) with NCI-H522; > 100 µM (inactive) in the experiment with MDA-MB-231; > 100 µM (inactive) in the experiment with OVCAR-4; > 100 µM (inactive) with PC-3; 12.9 µM (inactive) with CAKI-1; 4.53 µM (inactive) in the experiment on MCF7.

For the molecule `CCSC1SC(c2ccccc2)(c2ccccc2)c2ccccc21` (configuration not stated), the GI50 with SNB-19 is > 100 µM (inactive); in the experiment with LOX IMVI it was 45.1 µM (inactive); in the experiment on HOP-62, > 100 µM (inactive); in the experiment with COLO 205, 35 µM (inactive); with OVCAR-3 it was 23.8 µM (inactive); with UACC-62, 53.6 µM (inactive). The GI50 in the experiment with Malme-3M is 34.1 µM (inactive); in the experiment on SNB-75 it was 87.9 µM (inactive); in the experiment with U-251, 92.3 µM (inactive); in the experiment with DU-145 it was 64.7 µM (inactive); in the experiment on A549, 46 µM (inactive); with OVCAR-5, 45.4 µM (inactive). For the same molecule, the GI50 was 43.5 µM (inactive) in the experiment on NCI-H522; 73.1 µM (inactive) in the experiment with MDA-MB-231; 55.1 µM (inactive) in the experiment with OVCAR-4; 39.4 µM (inactive) in the experiment with PC-3; 48.6 µM (inactive) in the experiment with CAKI-1; 33.7 µM (inactive) in the experiment with MCF7.
